Experimental data as given in article PMC6667408, “Discovery and preclinical characterization of [^18F]PI-2620, a next-generation tau PET tracer for the assessment of tau pathology in Alzheimer’s disease and other tauopathies” (European Journal of Nuclear Medicine and Molecular Imaging, 2019).

Key:
MAO-B = target: T1, MAO-B (Homo sapiens, UniProt P27338); test: radioligand displacement of [3H]deprenyl, filtration; assay type: binding; conditions: [3H]deprenyl radioligand, PBS, 0.1% BSA, 2% DMSO
T1 construct: gene MAOB; native enzyme in human non-demented control (NDC) brain homogenate
T1 sequence (P27338 2-520): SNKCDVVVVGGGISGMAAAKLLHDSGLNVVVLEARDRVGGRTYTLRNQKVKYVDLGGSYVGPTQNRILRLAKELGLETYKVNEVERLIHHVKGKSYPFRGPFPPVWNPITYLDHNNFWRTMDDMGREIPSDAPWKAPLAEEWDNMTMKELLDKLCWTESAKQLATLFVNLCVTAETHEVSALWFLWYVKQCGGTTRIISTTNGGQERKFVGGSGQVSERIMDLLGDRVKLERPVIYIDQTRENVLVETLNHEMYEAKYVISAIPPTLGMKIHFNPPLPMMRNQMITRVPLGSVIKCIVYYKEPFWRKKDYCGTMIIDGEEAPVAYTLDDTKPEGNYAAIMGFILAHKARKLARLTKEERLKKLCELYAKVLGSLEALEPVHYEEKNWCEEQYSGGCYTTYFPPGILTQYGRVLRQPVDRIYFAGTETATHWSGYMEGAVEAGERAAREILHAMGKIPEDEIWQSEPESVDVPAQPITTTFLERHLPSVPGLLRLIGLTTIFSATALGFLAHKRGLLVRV

MAO-A = target: T2, MAO-A (Mus musculus, UniProt Q64133); test: radioligand displacement of […]FEH, filtration; assay type: binding; conditions: [18F]fluoroethylharmine radioligand, PBS, 0.1% BSA, 2% DMSO
T2 construct: gene Maoa; native enzyme in mouse brain homogenate, 20 ug/well
T2 sequence (Q64133 1-526): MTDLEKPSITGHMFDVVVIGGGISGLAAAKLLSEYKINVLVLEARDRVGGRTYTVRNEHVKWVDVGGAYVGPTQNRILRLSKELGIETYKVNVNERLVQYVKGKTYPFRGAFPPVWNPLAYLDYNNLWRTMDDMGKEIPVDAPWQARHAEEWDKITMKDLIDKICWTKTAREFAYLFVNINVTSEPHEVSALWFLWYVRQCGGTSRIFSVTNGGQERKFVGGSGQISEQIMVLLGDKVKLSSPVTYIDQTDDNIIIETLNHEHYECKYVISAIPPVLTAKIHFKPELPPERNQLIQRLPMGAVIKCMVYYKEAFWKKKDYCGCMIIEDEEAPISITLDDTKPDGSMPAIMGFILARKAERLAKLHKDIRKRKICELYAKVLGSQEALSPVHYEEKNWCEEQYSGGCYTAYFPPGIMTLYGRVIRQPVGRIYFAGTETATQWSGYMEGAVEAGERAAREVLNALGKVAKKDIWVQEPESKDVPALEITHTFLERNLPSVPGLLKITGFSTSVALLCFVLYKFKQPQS

[^3H]Deprenyl MAO-B pIC50^c (MAO-B) | [^18F]FEH MAO-A pIC50^a (MAO-A) | Structure (SMILES) | pIC50 (MAO-B)
– | – | CNc1ccc(-c2ccc3cc(OCC(O)CF)ccc3n2)cn1 (stereo not drawn) [THK5151, reference compound] | 7.4
6.8 | 7.7 | Fc1ccc(-c2ccc3c(c2)[nH]c2ccncc23)cn1 [compound 1, AV-1451] | –
– | 6.3 | Fc1ccc(-c2ccc3c(n2)[nH]c2ccncc23)cn1 [compound 3, RO6958948] | –
– | 6.1 | Fc1cnccc1-c1ccc2c(n1)[nH]c1ccncc12 [compound 8, 8] | –
6.5 | 6.6 | Fc1cccc(-c2ccc3c(n2)[nH]c2ccncc23)n1 [compound 9, 9] | –
6.5 | 7.1 | Fc1ccc(-c2ccc3c(n2)[nH]c2ccncc23)nc1 [compound 10, 10] | –
